Measured values: ChEMBL document CHEMBL1201862, “PubChem BioAssay data set” (2004)
Blank lines part the entries; values can stand above or below the compound they belong to. Active and inactive are the calls of the source.

Legend:
[1] = target: T1, Nuclear receptor subfamily 0 group B member 1 (Homo sapiens, UniProt P51843); experiment: Luminescence-based cell-based high throughput dose response assay for inhibitors of the orphan nuclear receptor subfamily 0, group B, member 1 (DAX1; NR0B1). [Related pubchem assays (depositor defined):AID504766, AID504790]; format: functional
T1 sequence (P51843 whole entry): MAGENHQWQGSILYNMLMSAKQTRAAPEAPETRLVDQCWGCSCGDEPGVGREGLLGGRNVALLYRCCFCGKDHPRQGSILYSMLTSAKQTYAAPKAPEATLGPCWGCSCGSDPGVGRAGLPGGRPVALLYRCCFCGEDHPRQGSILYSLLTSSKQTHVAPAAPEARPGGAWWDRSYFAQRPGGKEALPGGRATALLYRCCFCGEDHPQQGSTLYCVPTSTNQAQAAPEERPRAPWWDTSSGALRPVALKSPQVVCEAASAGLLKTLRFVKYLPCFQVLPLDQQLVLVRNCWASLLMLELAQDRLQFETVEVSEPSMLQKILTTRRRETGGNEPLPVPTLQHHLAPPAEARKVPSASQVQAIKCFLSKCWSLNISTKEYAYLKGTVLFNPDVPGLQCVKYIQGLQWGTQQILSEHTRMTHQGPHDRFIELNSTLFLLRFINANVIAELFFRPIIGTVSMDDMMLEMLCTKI

HEK293 = experiment: cells; format: functional, cell-based; details: Homo sapiens
Vero = experiment: viability of Vero cells under compound – cytotoxicity control for flavivirus capping enzyme inhibitors (AID 588742); format: functional; details: Chlorocebus sabaeus
Escherichia coli = experiment: microbe, parasite or virus in culture
Mu-type opioid receptor = Mu-type opioid receptor (Homo sapiens, UniProt P35372); experiment: (§1) Counterscreen for agonists of heterodimerization of the mu 1 (OPRM1) and delta 1 (OPRD1) opioid receptors: Luminescence-based cell-based high throughput dose response assay to identify agonists of OPRM1 homodimerization.; format: functional
[2] = target: T2, Short transient receptor potential channel 4 (Mus musculus, UniProt Q9QUQ5); experiment: block of DAMGO-driven TRPC4 calcium entry – cell-based, HEK293 TRPC4/mu-opioid, Fluo-4 calcium, dose response (AID 434942); format: functional;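 further: potency of inhibitors blocking the TRPC4 calcium response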
T2 sequence (Q9QUQ5 whole entry): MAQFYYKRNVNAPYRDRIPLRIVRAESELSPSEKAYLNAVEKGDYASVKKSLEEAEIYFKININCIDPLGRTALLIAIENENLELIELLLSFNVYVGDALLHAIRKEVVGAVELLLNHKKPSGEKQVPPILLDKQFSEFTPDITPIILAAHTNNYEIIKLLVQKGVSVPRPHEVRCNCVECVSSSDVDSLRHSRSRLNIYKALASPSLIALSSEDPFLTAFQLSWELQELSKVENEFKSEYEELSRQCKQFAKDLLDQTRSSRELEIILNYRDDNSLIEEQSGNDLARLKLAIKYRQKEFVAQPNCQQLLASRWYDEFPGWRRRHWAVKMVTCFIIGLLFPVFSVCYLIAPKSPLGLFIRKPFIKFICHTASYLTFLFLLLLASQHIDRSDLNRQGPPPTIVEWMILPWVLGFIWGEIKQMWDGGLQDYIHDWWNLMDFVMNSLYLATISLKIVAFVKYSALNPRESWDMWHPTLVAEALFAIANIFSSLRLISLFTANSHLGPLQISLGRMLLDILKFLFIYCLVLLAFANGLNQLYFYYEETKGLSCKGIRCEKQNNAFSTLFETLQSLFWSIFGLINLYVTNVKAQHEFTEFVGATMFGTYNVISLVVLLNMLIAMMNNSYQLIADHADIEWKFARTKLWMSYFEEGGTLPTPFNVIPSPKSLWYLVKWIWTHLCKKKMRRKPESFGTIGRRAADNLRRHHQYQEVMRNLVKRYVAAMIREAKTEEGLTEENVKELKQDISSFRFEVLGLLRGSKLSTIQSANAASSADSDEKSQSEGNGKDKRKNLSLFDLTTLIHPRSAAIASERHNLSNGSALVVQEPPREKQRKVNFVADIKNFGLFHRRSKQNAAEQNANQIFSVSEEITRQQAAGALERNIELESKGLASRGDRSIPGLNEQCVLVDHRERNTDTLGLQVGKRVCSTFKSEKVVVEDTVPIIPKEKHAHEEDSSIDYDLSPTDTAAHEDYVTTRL

[3] = target: Delta-type opioid receptor (Homo sapiens, UniProt P41143); experiment: as §1, with “of OPRD1” for “of OPRM1”, “homodimerization. [Related pubchem assays (depositor defined):AID504326, AID504355, AID504692, AID504904, AID504905]” for “homodimerization.”; format: functional
[4] = target: 5-hydroxytryptamine receptor 5A (Homo sapiens, UniProt P47898); experiment: Counterscreen for agonists of OPRM1-OPRD1 heterodimerization: luminescence-based cell-based high throughput dose response assay to identify agonists of 5-hydroxytryptamine (serotonin) 5A receptor (HTR5A). [Related pubchem assays (depositor defined):AID504326, AID504355, AID504692, AID504904, AID504905]; format: functional
Phospholipase A2 = Phospholipase A2 (Homo sapiens, UniProt P04054); format: functional;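 further: confirmatory dose-response counterscreen on phospholipase A2, testing hits that came from an ultra-high-throughput screen for ATG4B inhibitors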
Cysteine protease ATG4B = Cysteine protease ATG4B (Homo sapiens, UniProt Q9Y4P1); format: functional;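 further: Fluorescence-based dose-response confirmation assay measuring inhibition of ATG4B activity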
Hexokinase-1 = target: T3, Hexokinase-1 (Homo sapiens, UniProt P19367); experiment: hexokinase 1 activity inhibitors, potency – biochemical, set 2, resazurin fluorescence coupled readout, selectivity assay for HKDC1 inhibitor project, SAR follow-up (AID 588356); format: functional
T3 sequence (P19367 whole entry): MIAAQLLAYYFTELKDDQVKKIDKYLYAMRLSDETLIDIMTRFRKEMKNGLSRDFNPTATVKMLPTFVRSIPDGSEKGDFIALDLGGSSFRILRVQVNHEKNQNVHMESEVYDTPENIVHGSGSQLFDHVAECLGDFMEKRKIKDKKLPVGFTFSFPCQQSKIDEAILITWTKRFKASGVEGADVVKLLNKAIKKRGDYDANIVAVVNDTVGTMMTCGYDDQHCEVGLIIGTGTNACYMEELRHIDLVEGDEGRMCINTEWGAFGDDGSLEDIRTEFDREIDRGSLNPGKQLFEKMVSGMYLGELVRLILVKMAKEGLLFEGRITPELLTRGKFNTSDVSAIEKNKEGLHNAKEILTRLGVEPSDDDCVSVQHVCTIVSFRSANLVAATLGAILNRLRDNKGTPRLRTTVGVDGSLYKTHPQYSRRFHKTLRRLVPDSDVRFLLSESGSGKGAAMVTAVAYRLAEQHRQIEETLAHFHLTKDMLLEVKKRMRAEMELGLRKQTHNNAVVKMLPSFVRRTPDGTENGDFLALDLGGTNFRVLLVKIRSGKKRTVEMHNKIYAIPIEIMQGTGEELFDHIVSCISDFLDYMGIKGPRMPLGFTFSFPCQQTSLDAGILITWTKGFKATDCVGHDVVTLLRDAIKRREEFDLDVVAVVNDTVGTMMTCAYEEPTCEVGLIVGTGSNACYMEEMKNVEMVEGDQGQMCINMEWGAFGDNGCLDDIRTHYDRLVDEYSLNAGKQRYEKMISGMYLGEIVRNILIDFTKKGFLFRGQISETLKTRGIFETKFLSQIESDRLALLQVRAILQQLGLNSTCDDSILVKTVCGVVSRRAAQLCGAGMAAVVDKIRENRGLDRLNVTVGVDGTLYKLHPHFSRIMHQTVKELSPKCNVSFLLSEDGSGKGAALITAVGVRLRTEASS

Hexokinase HKDC1 = target: T4, Hexokinase HKDC1 (Homo sapiens, UniProt Q2TB90); experiment: analog inhibition of human HKDC1 activity – biochemical, set 2, SAR follow-up (AID 588355); format: functional
T4 sequence (Q2TB90 whole entry): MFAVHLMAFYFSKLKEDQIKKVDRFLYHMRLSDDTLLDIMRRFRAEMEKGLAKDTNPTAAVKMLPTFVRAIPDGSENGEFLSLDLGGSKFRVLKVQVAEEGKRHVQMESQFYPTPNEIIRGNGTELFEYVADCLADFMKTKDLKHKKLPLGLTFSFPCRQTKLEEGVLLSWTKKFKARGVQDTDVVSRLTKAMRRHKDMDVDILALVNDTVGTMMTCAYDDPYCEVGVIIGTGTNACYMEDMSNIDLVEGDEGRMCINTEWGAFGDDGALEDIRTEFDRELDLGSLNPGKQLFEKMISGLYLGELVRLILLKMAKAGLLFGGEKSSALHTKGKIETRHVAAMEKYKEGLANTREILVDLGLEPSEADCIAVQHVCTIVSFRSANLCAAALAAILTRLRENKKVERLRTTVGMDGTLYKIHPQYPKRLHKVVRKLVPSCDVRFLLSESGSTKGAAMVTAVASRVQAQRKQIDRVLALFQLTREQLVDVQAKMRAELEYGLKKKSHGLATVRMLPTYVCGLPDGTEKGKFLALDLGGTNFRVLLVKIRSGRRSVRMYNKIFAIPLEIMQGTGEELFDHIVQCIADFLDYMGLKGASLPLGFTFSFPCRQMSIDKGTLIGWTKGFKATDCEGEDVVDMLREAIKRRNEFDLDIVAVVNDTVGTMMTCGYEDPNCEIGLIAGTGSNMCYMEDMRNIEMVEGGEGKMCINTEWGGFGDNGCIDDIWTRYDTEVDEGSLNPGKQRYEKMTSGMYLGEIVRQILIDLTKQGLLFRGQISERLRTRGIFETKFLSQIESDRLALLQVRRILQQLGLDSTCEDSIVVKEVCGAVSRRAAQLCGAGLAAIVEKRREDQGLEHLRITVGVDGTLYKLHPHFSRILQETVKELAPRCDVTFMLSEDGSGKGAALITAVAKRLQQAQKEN

[5] = target: Beta-2 adrenergic receptor (Homo sapiens, UniProt P07550); experiment: ADRB2 activation measured by internalization – cell-based, FAP fluorogen, flow cytometry, cherry pick 1, dose response (AID 588763); format: functional
[6] = target: Casein kinase I isoform delta (Homo sapiens, UniProt P48730); format: functional;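 further: measured as one member (CSNK1D) of a kinome panel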
[7] = target: Neuropeptides B/W receptor type 1 (Homo sapiens, UniProt P48145); experiment: human NPBW1 receptor blockade, IC50 – cell-based, fluorescence, dose response, set 5, late-stage follow-up (AID 588566); format: functional
[8] = target: Melanin-concentrating hormone receptor 1 (Homo sapiens, UniProt Q99705); experiment: Late-stage fluorescence-based counterscreen for antagonists of the G-protein coupled receptor 7 (GPR7): cell-based dose response assay to identify antagonists of the melanin-concentrating hormone receptor 1 (MCHR1) Set 5.; format: functional
[9] = viability of HCT116 lacking mutant beta-catenin – cell-based, human colon tumor, dose response (AID 1045); format: functional;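 further: HCT116 colon tumor cells with beta catenin knocked out; cells exposed to compound for 60 hours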
[10] = viability of PTEN-deleted HCT116 cells – cell-based, HCT116 PTEN knockout, dose response (AID 1047); format: functional;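 further: HCT116 colon tumor cells with PTEN knocked out; cells exposed to compound for 60 hours before readout; potency for loss of cell viability measured by luminescence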
[11] = target: Mitogen-activated protein kinase 13 (Homo sapiens, UniProt O15264); format: functional
[12] = target: Voltage-gated inwardly rectifying potassium channel KCNH2 (Homo sapiens, UniProt Q12809); details: Potency;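 further: confirmatory quantitative high-throughput screen measuring inhibition of hERG channel activity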
Voltage-gated inwardly rectifying potassium channel KCNH2, sequence (Q12809 whole entry): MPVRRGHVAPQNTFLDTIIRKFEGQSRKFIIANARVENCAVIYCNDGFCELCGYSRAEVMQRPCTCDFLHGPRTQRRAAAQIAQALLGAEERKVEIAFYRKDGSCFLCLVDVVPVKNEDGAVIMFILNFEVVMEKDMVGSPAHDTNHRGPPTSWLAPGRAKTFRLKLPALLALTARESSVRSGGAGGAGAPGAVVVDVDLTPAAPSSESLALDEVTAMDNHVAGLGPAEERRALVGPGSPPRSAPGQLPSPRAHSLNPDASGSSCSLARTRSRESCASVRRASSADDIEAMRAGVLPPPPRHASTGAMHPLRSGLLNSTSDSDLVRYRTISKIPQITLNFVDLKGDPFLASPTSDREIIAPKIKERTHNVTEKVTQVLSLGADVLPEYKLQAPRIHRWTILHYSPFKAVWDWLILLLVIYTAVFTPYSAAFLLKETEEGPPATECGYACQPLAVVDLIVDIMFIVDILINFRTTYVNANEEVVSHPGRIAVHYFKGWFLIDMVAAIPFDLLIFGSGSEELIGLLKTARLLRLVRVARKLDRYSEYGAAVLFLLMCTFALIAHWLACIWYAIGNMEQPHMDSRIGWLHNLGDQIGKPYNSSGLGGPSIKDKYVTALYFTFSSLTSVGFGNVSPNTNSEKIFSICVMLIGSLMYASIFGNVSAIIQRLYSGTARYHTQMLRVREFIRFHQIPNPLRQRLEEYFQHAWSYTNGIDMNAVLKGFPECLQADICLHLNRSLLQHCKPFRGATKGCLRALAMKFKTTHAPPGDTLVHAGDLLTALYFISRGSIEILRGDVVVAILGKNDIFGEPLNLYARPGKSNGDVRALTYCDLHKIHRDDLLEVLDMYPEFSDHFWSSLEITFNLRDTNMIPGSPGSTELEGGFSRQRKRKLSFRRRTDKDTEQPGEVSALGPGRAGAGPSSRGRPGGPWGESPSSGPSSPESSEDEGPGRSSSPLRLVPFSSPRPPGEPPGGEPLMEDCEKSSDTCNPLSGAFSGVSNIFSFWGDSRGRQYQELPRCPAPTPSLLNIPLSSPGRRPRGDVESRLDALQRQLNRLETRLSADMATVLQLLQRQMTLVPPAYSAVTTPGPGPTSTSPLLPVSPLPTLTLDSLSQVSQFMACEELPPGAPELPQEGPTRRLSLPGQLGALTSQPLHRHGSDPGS

Neuropeptides B/W receptor type 1, sequence (P48145 whole entry): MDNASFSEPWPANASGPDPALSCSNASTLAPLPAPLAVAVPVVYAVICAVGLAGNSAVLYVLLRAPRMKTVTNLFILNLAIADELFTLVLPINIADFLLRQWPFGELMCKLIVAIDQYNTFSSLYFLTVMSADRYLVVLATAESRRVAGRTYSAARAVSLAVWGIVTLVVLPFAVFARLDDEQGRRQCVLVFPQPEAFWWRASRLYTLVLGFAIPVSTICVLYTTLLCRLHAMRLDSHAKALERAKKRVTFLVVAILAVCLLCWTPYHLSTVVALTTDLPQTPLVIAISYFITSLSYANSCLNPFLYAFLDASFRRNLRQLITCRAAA
Beta-2 adrenergic receptor, sequence (P07550 whole entry, canonical isoform): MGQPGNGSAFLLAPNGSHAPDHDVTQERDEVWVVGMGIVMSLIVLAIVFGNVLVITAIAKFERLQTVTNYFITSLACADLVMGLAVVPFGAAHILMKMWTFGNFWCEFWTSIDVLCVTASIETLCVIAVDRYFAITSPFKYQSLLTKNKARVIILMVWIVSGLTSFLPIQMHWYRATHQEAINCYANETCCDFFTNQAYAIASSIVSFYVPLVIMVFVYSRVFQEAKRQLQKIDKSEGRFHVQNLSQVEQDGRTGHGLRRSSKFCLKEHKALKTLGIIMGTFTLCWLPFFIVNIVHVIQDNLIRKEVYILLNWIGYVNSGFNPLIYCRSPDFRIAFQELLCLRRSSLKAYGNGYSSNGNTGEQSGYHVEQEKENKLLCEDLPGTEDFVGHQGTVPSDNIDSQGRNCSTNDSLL
Melanin-concentrating hormone receptor 1, sequence (Q99705 whole entry): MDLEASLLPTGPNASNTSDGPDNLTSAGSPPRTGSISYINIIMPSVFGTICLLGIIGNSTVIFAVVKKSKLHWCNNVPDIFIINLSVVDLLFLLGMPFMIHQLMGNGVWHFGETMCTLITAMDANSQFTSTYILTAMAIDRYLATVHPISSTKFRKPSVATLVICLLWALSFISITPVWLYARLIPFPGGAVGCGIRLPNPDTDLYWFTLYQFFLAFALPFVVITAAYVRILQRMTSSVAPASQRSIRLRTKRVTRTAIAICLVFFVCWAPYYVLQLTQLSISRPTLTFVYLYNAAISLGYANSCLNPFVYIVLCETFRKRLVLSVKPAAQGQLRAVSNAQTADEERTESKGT
Phospholipase A2, sequence (P04054 whole entry): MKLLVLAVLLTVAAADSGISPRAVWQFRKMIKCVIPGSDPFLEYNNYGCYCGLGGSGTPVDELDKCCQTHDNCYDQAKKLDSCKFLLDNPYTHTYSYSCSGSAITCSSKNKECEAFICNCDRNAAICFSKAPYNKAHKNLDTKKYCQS
Cysteine protease ATG4B, sequence (Q9Y4P1 whole entry): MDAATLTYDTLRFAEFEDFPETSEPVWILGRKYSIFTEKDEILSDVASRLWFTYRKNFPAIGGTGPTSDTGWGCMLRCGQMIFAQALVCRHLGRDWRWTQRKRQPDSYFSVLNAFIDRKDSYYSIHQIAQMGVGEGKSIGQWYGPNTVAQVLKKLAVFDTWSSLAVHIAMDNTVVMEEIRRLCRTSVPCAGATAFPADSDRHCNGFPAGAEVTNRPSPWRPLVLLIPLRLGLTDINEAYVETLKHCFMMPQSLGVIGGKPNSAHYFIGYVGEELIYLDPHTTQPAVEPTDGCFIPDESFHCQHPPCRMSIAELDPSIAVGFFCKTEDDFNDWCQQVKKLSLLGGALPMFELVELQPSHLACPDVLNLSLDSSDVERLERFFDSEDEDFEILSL
Mu-type opioid receptor, sequence (P35372 whole entry): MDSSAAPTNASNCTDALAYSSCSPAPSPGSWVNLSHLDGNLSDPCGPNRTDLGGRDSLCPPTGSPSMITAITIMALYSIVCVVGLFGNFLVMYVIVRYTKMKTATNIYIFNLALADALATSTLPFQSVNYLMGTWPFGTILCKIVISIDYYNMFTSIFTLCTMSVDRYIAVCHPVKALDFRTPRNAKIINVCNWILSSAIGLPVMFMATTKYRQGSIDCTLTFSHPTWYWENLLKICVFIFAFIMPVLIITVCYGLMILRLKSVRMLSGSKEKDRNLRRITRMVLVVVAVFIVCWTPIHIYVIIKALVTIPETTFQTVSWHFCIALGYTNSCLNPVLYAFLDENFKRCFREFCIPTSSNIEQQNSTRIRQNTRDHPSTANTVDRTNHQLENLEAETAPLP
Casein kinase I isoform delta, sequence (P48730 whole entry, canonical isoform): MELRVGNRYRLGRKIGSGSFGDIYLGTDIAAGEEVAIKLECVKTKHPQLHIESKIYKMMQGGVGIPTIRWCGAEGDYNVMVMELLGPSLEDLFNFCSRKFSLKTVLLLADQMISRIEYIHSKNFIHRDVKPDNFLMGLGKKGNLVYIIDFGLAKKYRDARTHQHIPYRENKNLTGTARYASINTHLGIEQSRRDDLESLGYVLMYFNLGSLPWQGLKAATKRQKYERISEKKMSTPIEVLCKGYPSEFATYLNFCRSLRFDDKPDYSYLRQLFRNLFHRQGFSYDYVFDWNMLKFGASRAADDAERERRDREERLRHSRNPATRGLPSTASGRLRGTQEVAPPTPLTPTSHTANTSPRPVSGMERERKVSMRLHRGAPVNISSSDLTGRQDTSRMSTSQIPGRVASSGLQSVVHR
Delta-type opioid receptor, sequence (P41143 whole entry): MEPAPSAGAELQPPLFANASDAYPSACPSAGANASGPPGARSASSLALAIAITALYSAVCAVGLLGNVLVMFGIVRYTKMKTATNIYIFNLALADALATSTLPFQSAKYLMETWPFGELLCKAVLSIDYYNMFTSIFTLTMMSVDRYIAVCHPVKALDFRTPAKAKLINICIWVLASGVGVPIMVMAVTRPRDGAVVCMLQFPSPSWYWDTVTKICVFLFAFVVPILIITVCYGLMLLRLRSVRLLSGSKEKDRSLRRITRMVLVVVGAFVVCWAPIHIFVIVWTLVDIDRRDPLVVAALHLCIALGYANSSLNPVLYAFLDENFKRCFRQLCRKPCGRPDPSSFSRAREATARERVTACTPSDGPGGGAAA
5-hydroxytryptamine receptor 5A, sequence (P47898 whole entry): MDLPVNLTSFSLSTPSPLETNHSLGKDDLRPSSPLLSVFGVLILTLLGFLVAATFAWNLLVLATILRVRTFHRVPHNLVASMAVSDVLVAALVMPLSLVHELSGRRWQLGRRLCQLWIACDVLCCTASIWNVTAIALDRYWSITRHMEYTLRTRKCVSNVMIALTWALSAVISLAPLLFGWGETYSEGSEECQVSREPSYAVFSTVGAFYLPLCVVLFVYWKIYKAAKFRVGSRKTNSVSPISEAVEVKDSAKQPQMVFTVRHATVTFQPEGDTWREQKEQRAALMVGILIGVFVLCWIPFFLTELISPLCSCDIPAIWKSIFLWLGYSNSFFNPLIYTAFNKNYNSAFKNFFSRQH
Mitogen-activated protein kinase 13, sequence (O15264 whole entry): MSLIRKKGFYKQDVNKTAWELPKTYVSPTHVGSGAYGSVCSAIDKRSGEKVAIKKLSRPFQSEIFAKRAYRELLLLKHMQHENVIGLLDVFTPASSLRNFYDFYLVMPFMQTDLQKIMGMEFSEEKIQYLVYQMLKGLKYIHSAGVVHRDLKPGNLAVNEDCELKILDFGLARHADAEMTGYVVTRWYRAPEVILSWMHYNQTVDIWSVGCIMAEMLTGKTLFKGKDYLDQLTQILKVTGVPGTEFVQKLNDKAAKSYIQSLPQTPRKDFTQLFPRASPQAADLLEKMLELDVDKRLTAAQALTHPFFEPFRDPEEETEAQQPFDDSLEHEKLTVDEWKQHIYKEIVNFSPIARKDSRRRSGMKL

Compound: CC(C)(C)c1ccc(-c2noc(-c3ccno3)n2)cc1
IC50 [1]: > 67.5 µM (inactive)
IC50 (HEK293): > 67.5 µM (inactive)

Compound: Cc1nc2ncccn2c1-c1csc(NCc2ccco2)n1
CC50 (Vero): > 40 µM (active)

Compound: c1ccc(C2NCc3ccccc3-n3cccc32)cc1 (stereo not given)
AC50 (Escherichia coli): > 150 µM (inactive)

Compound: CCOC(=O)C1(CCc2ccccc2)CCN(Cc2ccco2)CC1
EC50 (Mu-type opioid receptor): > 92.5 µM (inactive)
EC50 [2]: 1.19 µM (active)
EC50 [3]: > 92.5 µM (inactive)
EC50 [4]: > 92.5 µM (inactive)

Compound: Cc1ccc(-c2cc(C(=O)N3CCc4ccccc4C3)no2)cc1
IC50 (Phospholipase A2): 8.83 µM (active)
IC50 (Cysteine protease ATG4B): 13.3 µM (active)

Compound: O=C(CN1C(=O)CCC1=O)Nc1nc(-c2nc3ccccc3s2)cs1
EC50 [5]: 0.0444 µM (active)

Compound: Cc1nn(-c2ccccc2)c(C)c1NC(=O)COC(=O)c1ccc(Cl)c(S(N)(=O)=O)c1
AC50 (Escherichia coli): 28.1 µM (active)

Compound: Cc1[nH]n(-c2ccccc2)c(=O)c1N=Nc1nccs1
EC50 [9]: 4.29 µM (active)
CC50 (Vero): > 40 µM (active)
EC50 [10]: 5.42 µM (active)

Compound: N#Cc1ncc2nc1OCCCCCOc1cc(OCCCO)c(Cl)cc1NC(=O)N2
Ki [11]: > 7.94 µM (inactive)

Compound: CCOP(=S)(OCC)Oc1nc(Cl)c(Cl)cc1Cl [CHLORPYRIFOS]
AC50 [12]: 50.1 µM (inconclusive)

Other lines, results leading:

IC50 (Hexokinase-1): > 80 µM (inactive)
IC50 (Hexokinase HKDC1): > 80 µM (inactive)
Compound: CC(=O)NC1C(=O)N(Cc2ccccc2)c2ccc(Br)cc21 (stereo not given)

EC50 [5]: 6.08 µM (active)
Compound: CN(Cc1ccccc1F)c1nc(-c2cccnc2)nc2ccccc12

Ki [6]: 3.16 µM (active)
Compound: CC1(N2CCC(c3ccccc3)CC2)CCN(C(=O)CNc2ncnc3cc(Cl)c(Cl)cc23)C1 (stereo not given)

IC50 [7]: > 20 µM (inactive)
IC50 [8]: > 20 µM (inactive)
Compound: CCOC(=O)c1nn(-c2ccc(C(C)C)cc2)c(=O)c(Oc2ccc(OC)cc2)c1Cl

IC50 [7]: > 20 µM (inactive)
IC50 [8]: > 20 µM (inactive)
Compound: O=C(C1CCCCN1C1c2ccccc2-c2ccccc21)N1CCN(c2ccc([N+](=O)[O-])cc2)CC1 (stereo not given)
